In US20040096520A1, “Manganese compositions for reducing/preventing skin wrinkles and fine lines” (SOCIETE L'OREAL S.A., priority 2000, published 2004):

System: phrenic nerve/isolated diaphragm preparation
Settings: 10^−3 M; contractions induced by indirect stimulation via the phrenic nerve (0.1 to 7 volts, 0.3 ms, 0.1 Hz); cumulative concentrations
Protocol: Activity of manganese gluconate and of manganese chloride in a model of nerve/muscle junction (motor plate) obtained in a phrenic nerve/isolated diaphragm preparation: investigation of a myorelaxant effect:
The phrenic nerve and the diaphragm were carefully isolated and placed in a 50 ml tank filled with survival fluid (Krebs Henseleit liquid) maintained at a temperature of 37° C. and oxygenated with a mixture of 95% oxygen and 5% CO2.
The variations in the tension of the diaphragm were then recorded with an initial preloading of several grams.
After a relaxation period of 30 min., the diaphragm was stimulated indirectly via the phrenic nerve.
On each preparation, the effect of the test products was evaluated, in a first stage, on the contractions induced by indirect stimulation via stimulation of the phrenic nerve (0.1 to 7 volts, 0.3 ms, 0.1 Hz) at increasing and cumulative concentrations from 10^−6 M to 10^−3 M.

Q: How did the “% of inhibition (indirect stimulation)” value turn out when manganese chloride [MnCl2] was run?
A: The value was 10%.

Q: manganese gluconate was tested. Which “% of inhibition (indirect stimulation)” value did it give?
A: Its value is 25%.
